Assay: Hypotensive effect on experimental hypertension caused by DOCA
Format: in vivo, male wistar rats
Experimental: (A) Hypotensive effect on experimental hypertension caused by administration of desoxycorticosterone (hereinafter referred to as "DOCA"):
Right kidneys were removed from 6-week-old male wistar rats, and a 1% aqueous solution of sodium chloride was given as drinking water and 12.5 mg/Kg of DOCA was intramuscularly injected every week. The change of the blood pressure was examined over a period of 6 weeks.
48 rats, each having one kidney removed, were divided into 6 groups, each consisting of 8 rats, and each group was placed in a cage. With respect to each group, a gum arabic solution was administered to 2 rats as non-administered control animals. 20 mg/Kg of TN was administered once a day to each of two rats among the remaining 6 rats, and 100 mg/Kg of TN was administered once a day to each of two rats among the remaining 4 rats. 88 mg/Kg of TA was administered once a day to each of the remaining two rats. TN and TA were administered in the form of a suspension in gum arabic. The blood pressure was measured by a Shimazu type systolic pressure continuous recording apparatus detecting pulse waves of rats taken in a thermostat fixed box maintained at 30° C.

Cc1c(C)c2c(c(C)c1OC(=O)c1cccnc1)CCC(C)(CCCC(C)CCCC(C)CCCC(C)C)O2 (racemic) [TN, dl-α-tocopheryl nicotinate]
number of rats with blood pressure elevated to 170 mm Hg or higher (20 mg/kg of TN once a day, among 10 rats (control 9 among 11)): 5 rats
effect on increase of the blood pressure (100 mg/kg of TN): especially conspicuous
number of rats with blood pressure elevated to 170 mm Hg or higher (100 mg/kg of TN once a day, among 12 rats (control 9 among 11)): 3 rats
hypotensive effect, overall conclusion from pharmacological tests on animals (DOCA rats, old SHR, young SHR): have a hypotensive effect
